Reference: patent US8445476B2, “Carbacephem β-lactam antibiotics” (Achaogen, Inc., priority 2007, dated 2013)
In brackets after ≈: the same amount, converted by molar mass. Each block holds one compound with its values, some of them ahead of it.

Key:
Format in all cases: cell-based
[1] = tested on: S. aureus ASAU1033 (MRSA, CIP, ERY, CLIN, TET, GEN resistant); assay: MIC assay, S. aureus ASAU1033; settings: Staphylococcus aureus, read-out: MIC ASAU 1033
Procedure: (§1) The in vitro MIC for bacterial isolates may be obtained in the following manner: a test compound is incorporated into a series of two-fold dilutions in cation adjusted Mueller-Hinton broth (CAMHB). Different bacterial strains diluted to provide a uniform inoculum are added to the CAMHB containing test compounds. A well without test compound is included for each strain as a growth control. […] The procedures used in these experiments are generally those standardized by the Clinical and Laboratory Standards Institute (CLSI), as set forth in the CLSI publication entitled “M7-A7. Methods for dilution antimicrobial susceptibility tests for bacteria that grow aerobically; approved standard-seventh edition.” (2006), which is incorporated by reference as if fully set forth herein. The following exemplifies such a procedure although it is to be understood that modifications of the procedure may be implemented as required.
(§2) Two-fold dilutions of the test compounds are prepared in CAMHB at 2× the concentration range to be tested if the compounds are soluble in aqueous solution. Alternately, dimethylsulfoxide (DMSO) is used to prepare two-fold dilutions at 10× the concentration range to be tested. Reference drugs such as cefotaxime, vancomycin or imipenem are used as positive controls. A few isolated colonies are retrieved from a pure culture prepared on an agar plate and suspended in PBS until the turbidity of the suspension matches a 0.5 McFarland standard which is equal to approximately 10^8 sCFU/mL. This solution is further diluted in CAMHB to 10^6CFU/mL if compounds are diluted in CAMHB and 5×10^5 CFU/mL if compounds are diluted in DMSO. The CAMHB plates containing the compound dilutions are combined in equal volumes with the higher density inoculum, or 10 μL of the DMSO dilutions are added to the lower density inoculum. When S. aureus is the organism being tested and the compound is oxacillin, a beta-lactam or a carbacephem compound of the present invention, 2% NaCl is added to the growth media. The plates are then incubated for 16-20 hours at 35° C. The plates are then observed to determine which concentration of the test compound is the MIC.

[2] = tested on: S. aureus ASAU001 (Susceptible Organism ATCC 29213); assay: MIC assay, S. aureus ASAU001; settings: Staphylococcus aureus, ATCC29213, read-out: MIC ASAU 001
Procedure: as §1, §2

[3] = tested on: S. aureus ASAU1028 (CA-MRSA, USA400); assay: MIC assay, S. aureus ASAU1028; settings: Staphylococcus aureus, read-out: MIC ASAU 1028
Procedure: as §1, §2

[4] = tested on: S. aureus ASAU1029 (CA-MRSA, USA300); assay: MIC assay, S. aureus ASAU1029; settings: Staphylococcus aureus, read-out: MIC ASAU 1029
Procedure: as §1, §2

[5] = tested on: S. aureus ASAU1043 (MRSA, CIP, ERY, CLI, GEN resistant); assay: MIC assay, S. aureus ASAU1043; settings: Staphylococcus aureus, read-out: MIC ASAU 1043
Procedure: as §1, §2

Structure (SMILES): CNCCSCc1ncccc1SC1=C(C(=O)O)N2C(=O)[C@@H](NC(=O)/C(=N\OC)c3nc(N)sc3Cl)[C@H]2CC1 [41/1, (6R,7S,Z)-7-(2-(2-amino-5-chlorothiazol-4-yl)-2-(methoxyimino)acetamido)-3-(2-((2-(methylamino)ethylthio)methyl)pyridin-3-ylthio)-8-oxo-1-aza-bicyclo[4.2.0]oct-2-ene-2-carboxylic Acid]
- MIC [1]: > 8 µg/mL
- MIC [2]: ≤ 1 µg/mL
- MIC [3]: 1 to 8 µg/mL (≈ 1.63 to 13.1 µM)
- MIC [5]: > 8 µg/mL

Structure (SMILES): NCCc1ncccc1SC1=C(C(=O)O)N2C(=O)[C@@H](NC(=O)/C(=N\O)c3nc(N)sc3Cl)[C@H]2CC1 [32/1, (6R,7S,Z)-7-(2-(2-amino-5-chlorothiazol-4-yl)-2-(hydroxyimino)acetamido)-3-(2-(2-aminoethyl)pyridin-3-ylthio)-8-oxo-1-aza-bicyclo[4.2.0]oct-2-ene-2-carboxylic Acid]
- MIC [1]: 1 to 8 µg/mL (≈ 1.86 to 14.9 µM)
- MIC [2]: ≤ 1 µg/mL
- MIC [4]: > 8 µg/mL
- MIC [5]: > 8 µg/mL

Structure (SMILES): Nc1nc(/C(=N/O)C(=O)N[C@@H]2C(=O)N3C(C(=O)O)=C(Sc4cccnc4CSC4CCNC4)CC[C@H]23)c(Cl)s1 (stereo partly drawn) [30/1, (6R,7S,Z)-7-(2-(2-amino-5-chlorothiazol-4-yl)-2-(hydroxyimino)acetamido)-8-oxo-3-(2-((pyrrolidin-3-ylthio)methyl)pyridin-3-ylthio)-1-aza-bicyclo[4.2.0]oct-2-ene-2-carboxylic acid]
- MIC [1]: 1 to 8 µg/mL (≈ 1.64 to 13.1 µM)
- MIC [2]: ≤ 1 µg/mL
- MIC [3]: ≤ 1 µg/mL
- MIC [4]: ≤ 1 µg/mL
- MIC [5]: 1 to 8 µg/mL (≈ 1.64 to 13.1 µM)

Structure (SMILES): CNCCSCc1ncccc1SC1=C(C(=O)O)N2C(=O)[C@@H](NC(=O)/C(=N\O)c3nc(N)sc3Cl)[C@H]2CC1 [29/1, (6R,7S,Z)-7-(2-(2-amino-5-chlorothiazol-4-yl)-2-(hydroxyimino)acetamido)-3-(2-((2-(methylamino)ethylthio)methyl)pyridin-3-ylthio)-8-oxo-1-aza-bicyclo[4.2.0]oct-2-ene-2-carboxylic acid]
- MIC [1]: 1 to 8 µg/mL (≈ 1.67 to 13.4 µM)
- MIC [2]: ≤ 1 µg/mL
- MIC [3]: ≤ 1 µg/mL
- MIC [4]: ≤ 1 µg/mL
- MIC [5]: 1 to 8 µg/mL (≈ 1.67 to 13.4 µM)

The next lines start with the values.

- MIC [1]: > 8 µg/mL
- MIC [2]: ≤ 1 µg/mL
- MIC [3]: 1 to 8 µg/mL (≈ 2.1 to 16.8 µM)
- MIC [4]: 1 to 8 µg/mL (≈ 2.1 to 16.8 µM)
- MIC [5]: > 8 µg/mL
Structure (SMILES): CO/N=C(\C(=O)N[C@@H]1C(=O)N2C(C(=O)O)=C(Sc3ccncc3)CC[C@H]12)c1nsc(N)n1 [53/1, (6R,7S,Z)-7-(2-(5-amino-1,2,4-thiadiazol-3-yl)-2-(methoxyimino)acetamido)-8-oxo-3-(pyridin-4-ylthio)-1-aza-bicyclo[4.2.0]oct-2-ene-2-carboxylic Acid]

- MIC [1]: > 8 µg/mL
- MIC [2]: ≤ 1 µg/mL
- MIC [3]: 1 to 8 µg/mL (≈ 2.02 to 16.2 µM)
- MIC [4]: > 8 µg/mL
- MIC [5]: > 8 µg/mL
Structure (SMILES): Nc1nc(/C(=N/O)C(=O)N[C@@H]2C(=O)N3C(C(=O)O)=C(Sc4cccnc4)CC[C@H]23)c(Cl)s1 [34/1, (6R,7S,Z)-7-(2-(2-amino-5-chlorothiazol-4-yl)-2-(hydroxyimino)acetamido)-8-oxo-3-(pyridin-3-ylthio)-1-aza-bicyclo[4.2.0]oct-2-ene-2-carboxylic Acid]

- MIC [1]: > 8 µg/mL
- MIC [2]: ≤ 1 µg/mL
- MIC [3]: 1 to 8 µg/mL (≈ 1.81 to 14.5 µM)
- MIC [4]: 1 to 8 µg/mL (≈ 1.81 to 14.5 µM)
- MIC [5]: > 8 µg/mL
Structure (SMILES): CO/N=C(\C(=O)N[C@@H]1C(=O)N2C(C(=O)O)=C(Sc3cccnc3CCN)CC[C@H]12)c1nc(N)sc1Cl [39/1, (6R,7S,Z)-7-(2-(2-amino-5-chlorothiazol-4-yl)-2-(methoxyimino)acetamido)-3-(2-(2-aminoethyl)pyridin-3-ylthio)-8-oxo-1-aza-bicyclo[4.2.0]oct-2-ene-2-carboxylic Acid]

- MIC [1]: > 8 µg/mL
- MIC [2]: ≤ 1 µg/mL
- MIC [3]: 1 to 8 µg/mL (≈ 2.07 to 16.5 µM)
- MIC [4]: ≤ 1 µg/mL
- MIC [5]: > 8 µg/mL
Structure (SMILES): Nc1nc(/C(=N/O)C(=O)N[C@@H]2C(=O)N3C(C(=O)O)=C(Sc4nnc(N)s4)CC[C@H]23)ns1 [45/1, (6R,7S,Z)-7-(2-(5-amino-1,2,4-thiadiazol-3-yl)-2-(hydroxyimino)acetamido)-3-(5-amino-1,3,4-thiadiazol-2-ylthio)-8-oxo-1-aza-bicyclo[4.2.0]oct-2-ene-2-carboxylic Acid]
